Experimental data published in patent US12297285B2 (Orna Therapeutics, Inc., priority 2022, dated 2025).

Experiments:
Test in all cases: IRES screening, Gaussia luciferase from LNP-oRNA (Table 27)
Details in all cases: Gaussia luciferase luminescence in supernatant 48 hours after LNP-oRNA transfection, normalized to control (caprine kobuvirus IRES)
[1] = tested on: primary human skeletal myotubes
[2] = tested on: primary human hepatocytes
[3] = tested on: activated primary human T cells

SMILES: CCCCCCCCCCCCCCN(CCC(C)n1ccnc1)C(CCCCCCCCC(=O)OCC(CCCC)CCCCCC)CCCCCCCCC(=O)OCC(CCCC)CCCCCC (stereo not drawn) [Lipid 10a-134]
- [Mod] Fold Change Myo [1]: 0.04662 Fold Change
- [Mod] PHH Fold Change [2]: 0.4673 Fold Change
- [Mod] T Fold Change [3]: 0.05294 Fold Change

SMILES: Cc1nccn1CCCC(=O)OC(CCCCCCOC(=O)CC(C)CCCC(C)C)CCCCCCOC(=O)CC(C)CCCC(C)C (stereo not drawn) [Lipid 10a-117]
- [Mod] Fold Change Myo [1]: 0.04273 Fold Change
- [Mod] PHH Fold Change [2]: 0.4258 Fold Change
- [Mod] T Fold Change [3]: 0.04612 Fold Change

SMILES: CCCCC(C)CCC(=O)OCCCCCCC(CCCCCCOC(=O)CCC(C)CCCC)OC(=O)CCCn1ccnc1C (stereo not drawn) [Lipid 10a-115]
- [Mod] Fold Change Myo [1]: 0.05074 Fold Change
- [Mod] PHH Fold Change [2]: 0.425 Fold Change
- [Mod] T Fold Change [3]: 0.04693 Fold Change

SMILES: Cc1nccn1CCCN(CCCCCCCCC(=O)OCCC(C)CC(C)(C)C)CCCCCCCCC(=O)OCCC(C)CC(C)(C)C (stereo not drawn) [Lipid 10a-106]
- [Mod] Fold Change Myo [1]: 0.3524 Fold Change
- [Mod] PHH Fold Change [2]: 1.093 Fold Change
- [Mod] T Fold Change [3]: 0.648 Fold Change

SMILES: CC(C)=CCCC(C)CC(=O)OCCCCCCC(CCCCCCOC(=O)CC(C)CCC=C(C)C)OC(=O)CCCn1ccnc1 (stereo not drawn) [Lipid 10a-118]
- [Mod] Fold Change Myo [1]: 0.1546 Fold Change
- [Mod] PHH Fold Change [2]: 0.6669 Fold Change
- [Mod] T Fold Change [3]: 0.4562 Fold Change

SMILES: CCCCC(C)CCC(=O)OCCCCCCC(CCCCCCOC(=O)CCC(C)CCCC)OC(=O)CCCn1ccnc1 (stereo not drawn) [Lipid 10a-113]
- [Mod] Fold Change Myo [1]: 0.3171 Fold Change
- [Mod] PHH Fold Change [2]: 0.8279 Fold Change
- [Mod] T Fold Change [3]: 0.4373 Fold Change

SMILES: CC(C)=CCC/C(C)=C/C(=O)OCCCCCCN(CCCCCCOC(=O)/C=C(\C)CCC=C(C)C)CCCn1ccnc1 [Lipid 10a-126]
- [Mod] Fold Change Myo [1]: 0.05793 Fold Change
- [Mod] PHH Fold Change [2]: 0.6456 Fold Change
- [Mod] T Fold Change [3]: 0.06647 Fold Change

SMILES: CC(C)=CCC/C(C)=C/C(=O)OCCCCCCN(CCCCCCOC(=O)/C=C(\C)CCC=C(C)C)CCCn1ccnc1C [Lipid 10a-127]
- [Mod] Fold Change Myo [1]: 0.2936 Fold Change
- [Mod] PHH Fold Change [2]: 0.6745 Fold Change
- [Mod] T Fold Change [3]: 0.6858 Fold Change

SMILES: CC(C)CCC(C)CCOC(=O)CCCCCCCC(CCCCCCCC(=O)OCCC(C)CCC(C)C)OC(=O)CCCn1ccnc1 (stereo not drawn) [Lipid 10a-101]
- [Mod] Fold Change Myo [1]: 0.533 Fold Change
- [Mod] PHH Fold Change [2]: 1.37 Fold Change
- [Mod] T Fold Change [3]: 0.853 Fold Change

SMILES: CCCCCCCCCCCCCCN(Cc1nccn1C)C(CCCCCCCCC(=O)OCC(CCCC)CCCCCC)CCCCCCCCC(=O)OCC(CCCC)CCCCCC (stereo not drawn) [Lipid 10a-136]
- [Mod] Fold Change Myo [1]: 0.04786 Fold Change
- [Mod] PHH Fold Change [2]: 0.4286 Fold Change
- [Mod] T Fold Change [3]: 0.04232 Fold Change

SMILES: CC(C)=CCCC(C)CC(=O)OCCCCCCC(CCCCCCOC(=O)CC(C)CCC=C(C)C)OC(=O)CCCn1ccnc1C (stereo not drawn) [Lipid 10a-119]
- [Mod] Fold Change Myo [1]: 0.198 Fold Change
- [Mod] PHH Fold Change [2]: 0.6212 Fold Change
- [Mod] T Fold Change [3]: 0.9876 Fold Change

SMILES: CCCCCCCCC(CC)OC(=O)CCCCCCCN(CCCCCCCC(=O)OC(CCCCCCCC)CCCCCCCC)CCCn1ccnc1C (stereo not drawn) [Lipid 10a-138]
- [Mod] Fold Change Myo [1]: 0.3723 Fold Change
- [Mod] PHH Fold Change [2]: 0.6157 Fold Change
- [Mod] T Fold Change [3]: 0.6378 Fold Change

SMILES: CCCCC(CC)CCC(=O)OCCCCCCN(CCCCCCOC(=O)CCC(CC)CCCC)CCCn1ccnc1C (stereo not drawn) [Lipid 10a-110]
- [Mod] Fold Change Myo [1]: 0.2424 Fold Change
- [Mod] PHH Fold Change [2]: 0.7175 Fold Change
- [Mod] T Fold Change [3]: 0.5133 Fold Change

SMILES: CCCCCCCCCOC(=O)CCCCCCCN(CCCCCCCC(=O)OC(CCCCCCCC)CCCCCCCC)Cc1nccn1C [Lipid 10a-133]
- [Mod] Fold Change Myo [1]: 0.03933 Fold Change
- [Mod] PHH Fold Change [2]: 0.541 Fold Change
- [Mod] T Fold Change [3]: 0.03004 Fold Change

SMILES: CCCCCCCCC(CCCCCC)C(=O)OCCCCCCN(CCCCCCOC(=O)C(CCCCCC)CCCCCCCC)Cc1nccn1C (stereo not drawn) [Lipid 10a-128]
- [Mod] Fold Change Myo [1]: 0.4893 Fold Change
- [Mod] PHH Fold Change [2]: 1.021 Fold Change
- [Mod] T Fold Change [3]: 0.5837 Fold Change

SMILES: CCCCC(C)CCC(=O)OCCCCCCN(CCCCCCOC(=O)CCC(C)CCCC)CCCn1ccnc1C (stereo not drawn) [Lipid 10a-114]
- [Mod] Fold Change Myo [1]: 0.05835 Fold Change
- [Mod] PHH Fold Change [2]: 0.7898 Fold Change
- [Mod] T Fold Change [3]: 0.06812 Fold Change

SMILES: CCCCC(CC)CCC(=O)OCCCCCCN(CCCCCCOC(=O)CCC(CC)CCCC)CCCn1ccnc1 (stereo not drawn) [Lipid 10a-109]
- [Mod] Fold Change Myo [1]: 0.2492 Fold Change
- [Mod] PHH Fold Change [2]: 0.8533 Fold Change
- [Mod] T Fold Change [3]: 0.6261 Fold Change

SMILES: Cc1nccn1CCCN(CCCCCCCC(=O)OCC(CCC(C)C)C(C)C)CCCCCCCC(=O)OCC(CCC(C)C)C(C)C (stereo not drawn) [Lipid 10a-99]
- [Mod] Fold Change Myo [1]: 0.1639 Fold Change
- [Mod] PHH Fold Change [2]: 1.02 Fold Change
- [Mod] T Fold Change [3]: 0.2767 Fold Change

SMILES: CCCCCCCCCN(CCCCn1ccnc1C)C(CCCCCCCCC(=O)OCC(CCCC)CCCCCC)CCCCCCCCC(=O)OCC(CCCC)CCCCCC (stereo not drawn) [Lipid 10a-147]
- [Mod] Fold Change Myo [1]: 0.04264 Fold Change
- [Mod] PHH Fold Change [2]: 0.5594 Fold Change
- [Mod] T Fold Change [3]: 0.03662 Fold Change

SMILES: CCCCCCCCC(CCCCCC)OCCOC(=O)CCN(CCCn1ccnc1C)CCC(=O)OCCOC(CCCCCC)CCCCCCCC (stereo not drawn) [Lipid 10a-143]
- [Mod] Fold Change Myo [1]: 0.03901 Fold Change
- [Mod] PHH Fold Change [2]: 0.4209 Fold Change
- [Mod] T Fold Change [3]: 0.03265 Fold Change

SMILES: CCCCCCCCC(CCCCCC)C(=O)OCCCCCCN(CCCn1ccnc1C)CC(O)CCCCOC(=O)C(CCCCCC)CCCCCCCC (stereo not drawn) [Lipid 10a-149]
- [Mod] Fold Change Myo [1]: 0.03919 Fold Change
- [Mod] PHH Fold Change [2]: 0.7118 Fold Change
- [Mod] T Fold Change [3]: 0.02893 Fold Change

SMILES: CCCCCCCCCN(CCCCn1ccnc1)C(CCCCCCCCC(=O)OCC(CCCC)CCCCCC)CCCCCCCCC(=O)OCC(CCCC)CCCCCC (stereo not drawn) [Lipid 10a-148]
- [Mod] Fold Change Myo [1]: 0.03913 Fold Change
- [Mod] PHH Fold Change [2]: 0.7368 Fold Change
- [Mod] T Fold Change [3]: 0.02909 Fold Change

SMILES: CC(C)CCC(C)CCOC(=O)CCCCCCCN(CCCCCCCC(=O)OCCC(C)CCC(C)C)CCCn1ccnc1 (stereo not drawn) [Lipid 10a-100]
- [Mod] Fold Change Myo [1]: 0.4952 Fold Change
- [Mod] PHH Fold Change [2]: 1.228 Fold Change
- [Mod] T Fold Change [3]: 0.4826 Fold Change
